Assay results: US8785428B2, “Vermin poison” (priority 2006, dated 2014)

Legend:
rats [1] = conditions: cited from earlier work
Walker tumour = conditions: specific rat tumour ('Walker tumour'); cited from earlier work
rats [2] = test: toxic effects in rats when administered via the oral route; assay type: in vivo
Excerpt: As mentioned above, rats are particularly troublesome vermin. […] For example, Tretazicar is particularly toxic towards rats compared to other rodents. […] This feature is believed to help prevent bait-shyness.

[3] = dogs, packed into a gelatin capsule; cited from earlier work
human cells = conditions: cited from earlier work
rat = conditions: administered intraperitoneally; cited from earlier work
mouse = conditions: cited from earlier work
variety of other tumours = conditions: cited from earlier work
[4] = human clinical oncology studies; cited from earlier work

What does the source list for `NC(=O)c1cc(N2CC2)c([N+](=O)[O-])cc1[N+](=O)[O-]` [Tretazicar, 5-(aziridin-1-yl)-2,4-dinitrobenzarnide]?
toxicity (rats [1]): toxic to rats; effect on Walker tumour (Walker tumour): capable of eradicating; onset of toxic effects (rats [2]): delayed; oral bioavailability [3]: about 40%; sensitivity of cells to the effects of the compound (human cells): insensitive; LD50 (rat): 28 mg/kg; LD50 (mouse): 220 mg/kg; effect on other tumours (variety of other tumours): little or no effect; therapeutic benefit [4]: no therapeutic benefit
